Consider 13 compounds from ChEMBL document CHEMBL1135098, “Design, synthesis and evaluation of substituted phenylpropanoic acid derivatives as peroxisome proliferator-activated receptor (PPAR) activators: novel human PPARalpha-selective activators” (Bioorg Med Chem Lett, 2002).

As usually defined, the EC50 is the concentration that produces a half-maximal response. A low value points to a more potent agent.

The target in assay [1] is T1, Peroxisome proliferator-activated receptor gamma (Homo sapiens, UniProt P37231).
T1 sequence (P37231 whole entry): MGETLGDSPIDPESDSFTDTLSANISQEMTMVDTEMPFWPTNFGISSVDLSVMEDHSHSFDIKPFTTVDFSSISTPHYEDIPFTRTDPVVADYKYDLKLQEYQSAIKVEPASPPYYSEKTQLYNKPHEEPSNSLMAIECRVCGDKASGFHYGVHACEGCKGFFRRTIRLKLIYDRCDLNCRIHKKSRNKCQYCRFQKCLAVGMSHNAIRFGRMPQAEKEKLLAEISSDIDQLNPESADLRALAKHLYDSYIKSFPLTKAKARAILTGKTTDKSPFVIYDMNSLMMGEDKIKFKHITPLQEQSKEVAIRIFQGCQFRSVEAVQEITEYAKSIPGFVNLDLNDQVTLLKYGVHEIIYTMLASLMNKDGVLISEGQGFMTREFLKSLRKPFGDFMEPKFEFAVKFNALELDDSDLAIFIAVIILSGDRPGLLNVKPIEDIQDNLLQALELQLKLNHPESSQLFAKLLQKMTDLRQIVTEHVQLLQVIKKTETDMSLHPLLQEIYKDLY
Description: […] of human Peroxisome proliferator activated receptor gamma in CHO-K1 cells;ia means inactive at 10 uM. Format: cell-based.

Assay [2] addresses T2, Peroxisome proliferator-activated receptor alpha (Homo sapiens, UniProt Q07869).
T2 sequence (Q07869 whole entry): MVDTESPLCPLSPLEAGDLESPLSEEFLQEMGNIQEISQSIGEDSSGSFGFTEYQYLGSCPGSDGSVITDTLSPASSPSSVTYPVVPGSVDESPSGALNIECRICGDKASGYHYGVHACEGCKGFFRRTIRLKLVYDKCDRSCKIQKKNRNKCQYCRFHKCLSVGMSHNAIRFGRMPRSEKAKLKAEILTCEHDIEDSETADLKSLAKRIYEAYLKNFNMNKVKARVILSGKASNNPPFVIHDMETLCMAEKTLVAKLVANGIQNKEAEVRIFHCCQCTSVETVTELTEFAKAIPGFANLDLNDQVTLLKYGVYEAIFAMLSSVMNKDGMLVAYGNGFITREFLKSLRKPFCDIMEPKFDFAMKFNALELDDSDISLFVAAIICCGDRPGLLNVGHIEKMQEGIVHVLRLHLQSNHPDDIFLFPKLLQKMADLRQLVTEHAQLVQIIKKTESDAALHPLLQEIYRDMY
Description: Concentration of compound that affords half-maximum transactivation of human Peroxisome proliferator activated receptor alpha in CHO-K1 cells was determined in vitro;ia means inactive at 10 uM. The assay is classed as cell-based.

Assay [3] deals with T2, Peroxisome proliferator-activated receptor alpha. Description: Transactivation of human Peroxisome proliferator activated receptor alpha expressed in CHO-K1 cells. Format: cell-based.
The target of assay [4] is T1, Peroxisome proliferator-activated receptor gamma.
Description: Concentration of compound that affords half-maximum transactivation of human Peroxisome proliferator activated receptor gamma in CHO-K1 cells was determined in vitro

With `COc1ccc(CC(C)(C)C(=O)O)cc1C(=O)NCc1ccc(C(F)(F)F)cc1`, the EC50 entry in assay [1] is given as “Not Active”.
Take `COc1ccc(CC(Oc2ccccc2)C(=O)O)cc1C(=O)NCc1ccc(C(F)(F)F)cc1` (stereo not drawn): the concentration giving a half-maximal response (EC50) entry in assay [1] and in assay [2] was “Not Active” in each case.
For `COc1ccc(CC(OC)C(=O)O)cc1C(=O)NCc1ccc(C(F)(F)F)cc1` (stereo not drawn), the concentration giving a half-maximal response (EC50) result in assay [1] is given as “Not Active”.
Take `COc1ccc(CC(C)C(=O)O)cc1C(=O)NCc1ccc(C(F)(F)F)cc1` (stereo not drawn): in assay [1], the EC50 entry is reported as “Not Active”.
Consider `COc1ccc(CCCC(=O)O)cc1C(=O)NCc1ccc(C(F)(F)F)cc1`, for which the EC50 in assay [3] is 2.2 µM; in assay [4], 3 µM.
Turning to `COc1ccc(C(=O)O)cc1C(=O)NCc1ccc(C(F)(F)F)cc1`, the concentration giving a half-maximal response (EC50) entry in assay [1] and in assay [2] was “Not Active” in each case.
In the case of `COc1ccc(CC(C(=O)O)c2ccccc2)cc1C(=O)NCc1ccc(C(F)(F)F)cc1` (stereo not drawn), the half-maximal effective concentration (EC50) entry in assay [1] and in assay [2] was “Not Active” in each case.
For `CCCC(Cc1ccc(OC)c(C(=O)NCc2ccc(C(F)(F)F)cc2)c1)C(=O)O` (stereo not drawn), in assay [1], the EC50 entry is listed as “Not Active”.
In the case of `COc1ccc(CC(=O)O)cc1C(=O)NCc1ccc(C(F)(F)F)cc1`, the EC50 entry in assay [1] and in assay [2] was “Not Active” each time.
In the case of `CCC(CC)(Cc1ccc(OC)c(C(=O)NCc2ccc(C(F)(F)F)cc2)c1)C(=O)O`, the EC50 entry in assay [1] was “Not Active”.
With `COc1ccc(CC(C(=O)O)C(C)C)cc1C(=O)NCc1ccc(C(F)(F)F)cc1` (stereo not drawn), the concentration for a half-maximal effect (EC50) entry in assay [1] is reported as “Not Active”.
Regarding `CC(C)(Oc1ccc(CCNC(=O)c2ccc(Cl)cc2)cc1)C(=O)O` [BEZAFIBRATE], the concentration for a half-maximal effect (EC50) in assay [4] is > 137 µM.
Consider `COc1ccc(CCC(=O)O)cc1C(=O)NCc1ccc(C(F)(F)F)cc1`, for which the EC50 entry in assay [1] is “Not Active”.
